Reference: USRE38551E1, “Anticonvulsant enantiomeric amino acid derivatives” (priority 1996, dated 2004)
Marks after values point to notes of the source that are not given here.

Columns and labels:
[1] = tested on: maximal electroshock (MES) induced seizure; experiment: 5-day chronic treatment tolerance study (MES test); type: in vivo; conditions: rats
Method: Compound C, i.e., N-acetyl-D, L-phenylglycine N-benzylamide was subjected to 5-day chronic treatment on anticonvulsant activity (maximal electroshock). 3 groups of 8 animals each were treated as follows. One group was given the MES ED50 of the test drug for 5 days; the second group was given the requisite volume of the vehicle (0.04 ml/10 g body wt.) for 4 days and a single dose (MES ED50) of the test drug on day 5; and the third group was given the requisite volume of the vehicle daily for 5 days. At the time of peak effect of the candidate substance on day 5, all groups were subjected to the MES test and the number of animals protected recorded. Seizure components of the unprotected animals were timed to the nearest 10th of a second and the extensor/flexor (E/F) ratio, S.E., and p value determined. Since extensor duration decreases and flexor duration increases as a maximal seizure is attenuated, the E/F ratio provides a measure of seizure severity.

Crl:CoBs CD(SD) rats = experiment: thirty-day dose range finding study of Compound A in rats; conditions: for BR - BRAIN W/STEM organ to terminal body weight ratio mean / HT - HEART organ to terminal body weight ratio mean / KD - KIDNEY organ to terminal body weight ratio mean / LI - LIVER organ to terminal body weight ratio mean / SP - SPLEEN organ to terminal body weight ratio mean / dilated pelves of kidneys, number of animals / TP - TESTIS/EPIDID organ to terminal body weight ratio mean: 30 days oral
Method: More specifically, 50 male and 50 female Crl:CoBs® CD(SD) selected from 68 male and 68 female rats (4 weeks old) were used as test animals in the study 1. The rats were housed individually in elevated wire mesh cages with food (Purina Certified Rodent Chow® 5002) and tap water (via an automated watering system) available ad libitum. Each batch of feed utilized was analyzed by the manufacturer for concentrations of specified heavy metals, aflatoxin, chlorinated hydrocarbons, organophosphates, and specified nutrients.
An artificial light cycle of 12 hours light and 12 hours dark was maintained.
The rats were selected for use on the study using a computer-generated weight randomization procedure and assigned to the following groups:
Following randomization, the rats were identified with an ear tag bearing a unique permanent identification number. The rats were randomly assigned to treatment groups by first eliminating the ones with extreme body weights (±2 standard deviations from the mean body weight).
The desired amount of carboxymethyl cellulose was weighed on an appropriate (milligram) balance, transferred to a precalibrated beaker containing two-thirds of the total value of distilled water, and stirred on a magnetic stirrer until a solution formed. Distilled water was then added to final volume and stirred to achieve a 0.5% w/v solution.
Compound A was first ground into a powder. The desired amount for each dose level as weighed on an appropriate (milligram) balance and transferred into a precalibrated beaker. A small amount (0.5 to 4ml) of 0.5% carboxymethyl cellulose was added to Compound A and mixed to form a paste. […] Fresh suspensions of Compound A were prepared daily and fresh solutions of 0.5% carboxymethyl cellulose were prepared weekly and stored refrigerated.
Each rat received Compound A at a dosage factor of 10 milliliters per kilogram of body weight via gavage between 9 a.m. and noon each day. The dosing volume for each rat was calculated and adjusted weekly by the computer from the most recently recorded individual body weight.
Compound A was administered orally.
All rats were observed twice daily for mortality and moribundity. Clinical observations were made prior to dosing and at 1 and 4 hours after dosing. All signs were recorded as they were observed. Individual body weights were recorded at initiation of treatment, at weekly intervals, and at termination while food consumption was recorded weekly.
Following 30 or 31 days of treatment, surviving rats were weighed, anesthetized, and exsanguinated under sodium pentobarbital anesthesia. Complete necropsies were performed on each rat by appropriately trained personnel using procedures approved by board-certified pathologists. Necropsy included examination of the following:
Various organs were weighted and compared to the control, e.g., brain with stem, heart, spleen, kidney, liver, sex organs.

[2] = target: p-nitroanisole O-demethylase; experiment: in vitro p-nitroanisole O-demethylase inhibition; type: biochemical; conditions: listed as Compound A, read-out: I50, in vitro p-nitroanisole O-demethylase activity
Source text: This interpretation is supported by the similar effectiveness of Compound A by the MES test, the increased hexobarbital sleep time, and the unaltered liver microsomal enzyme activity. In view of the increased hexobarbital sleep time in the 5-day treated animals, it was thought important to determine the in vitro effect of Compound A on p-nitroanisole O-demethylase activity. […] This may indicate that the potentiation of hexobarbital sleep time is central and not peripheral.

[3] = female, group 5, 1000 mg/kg/day

CC(=O)NC(C)C(=O)NCc1ccccc1 (racemic) [compound 1, N-Acetyl-D,L-alanine-N′-benzylamide]
tolerance to the anticonvulsant effects (MES Test) ([1]; 5 daily doses of 48 mg/kg): does not induce tolerance | animals protected, MES test ([1]; chronically treated group, 5 daily doses of 48 mg/kg): 3/8 | animals protected, MES test ([1]; single dose acute control group, MES ED50 (48 mg/kg)): 4/8 | mean kidney weight (Crl:CoBs CD(SD) rats; Group 5 males (1000 mg/kg/day × 30 days)): small increase | BR - BRAIN W/STEM organ to terminal body weight ratio mean (Crl:CoBs CD(SD) rats; female, group 2, 30 mg/kg/day): .887% | HT - HEART organ to terminal body weight ratio mean (Crl:CoBs CD(SD) rats; female, group 2, 30 mg/kg/day): .372% | KD - KIDNEY organ to terminal body weight ratio mean (Crl:CoBs CD(SD) rats; female, group 2, 30 mg/kg/day): .773% | LI - LIVER organ to terminal body weight ratio mean (Crl:CoBs CD(SD) rats; female, group 2, 30 mg/kg/day): 3.122% | SP - SPLEEN organ to terminal body weight ratio mean (Crl:CoBs CD(SD) rats; female, group 2, 30 mg/kg/day): .204% | BR - BRAIN W/STEM organ to terminal body weight ratio mean (Crl:CoBs CD(SD) rats; female, group 3, 100 mg/kg/day): .899% | HT - HEART organ to terminal body weight ratio mean (Crl:CoBs CD(SD) rats; female, group 3, 100 mg/kg/day): .345% | KD - KIDNEY organ to terminal body weight ratio mean (Crl:CoBs CD(SD) rats; female, group 3, 100 mg/kg/day): .768% | LI - LIVER organ to terminal body weight ratio mean (Crl:CoBs CD(SD) rats; female, group 3, 100 mg/kg/day): 3.166% | SP - SPLEEN organ to terminal body weight ratio mean (Crl:CoBs CD(SD) rats; female, group 3, 100 mg/kg/day): .200% | BR - BRAIN W/STEM organ to terminal body weight ratio mean (Crl:CoBs CD(SD) rats; female, group 4, 300 mg/kg/day): .934% | HT - HEART organ to terminal body weight ratio mean (Crl:CoBs CD(SD) rats; female, group 4, 300 mg/kg/day): .373% | KD - KIDNEY organ to terminal body weight ratio mean (Crl:CoBs CD(SD) rats; female, group 4, 300 mg/kg/day): .770% | LI - LIVER organ to terminal body weight ratio mean (Crl:CoBs CD(SD) rats; female, group 4, 300 mg/kg/day): 3.172% | SP - SPLEEN organ to terminal body weight ratio mean (Crl:CoBs CD(SD) rats; female, group 4, 300 mg/kg/day): .198% | BR - BRAIN W/STEM organ to terminal body weight ratio mean (Crl:CoBs CD(SD) rats; [3]): .891% | HT - HEART organ to terminal body weight ratio mean (Crl:CoBs CD(SD) rats; [3]): .347% | KD - KIDNEY organ to terminal body weight ratio mean (Crl:CoBs CD(SD) rats; [3]): .763% | LI - LIVER organ to terminal body weight ratio mean (Crl:CoBs CD(SD) rats; [3]): 3.739* % | SP - SPLEEN organ to terminal body weight ratio mean (Crl:CoBs CD(SD) rats; [3]): .189% | dilated pelves of kidneys, number of animals (Crl:CoBs CD(SD) rats; females, Group 5 (1000 mg/kg/day)): two | BR - BRAIN W/STEM organ to terminal body weight ratio mean (Crl:CoBs CD(SD) rats; male, group 2, 30 mg/kg/day): .593% | HT - HEART organ to terminal body weight ratio mean (Crl:CoBs CD(SD) rats; male, group 2, 30 mg/kg/day): .313% | KD - KIDNEY organ to terminal body weight ratio mean (Crl:CoBs CD(SD) rats; male, group 2, 30 mg/kg/day): .719% | LI - LIVER organ to terminal body weight ratio mean (Crl:CoBs CD(SD) rats; male, group 2, 30 mg/kg/day): 2.849% | SP - SPLEEN organ to terminal body weight ratio mean (Crl:CoBs CD(SD) rats; male, group 2, 30 mg/kg/day): .172% | TP - TESTIS/EPIDID organ to terminal body weight ratio mean (Crl:CoBs CD(SD) rats; male, group 2, 30 mg/kg/day): 1.265% | BR - BRAIN W/STEM organ to terminal body weight ratio mean (Crl:CoBs CD(SD) rats; male, group 3, 100 mg/kg/day): .599% | HT - HEART organ to terminal body weight ratio mean (Crl:CoBs CD(SD) rats; male, group 3, 100 mg/kg/day): .314% | KD - KIDNEY organ to terminal body weight ratio mean (Crl:CoBs CD(SD) rats; male, group 3, 100 mg/kg/day): .694% | LI - LIVER organ to terminal body weight ratio mean (Crl:CoBs CD(SD) rats; male, group 3, 100 mg/kg/day): 3.059* % | SP - SPLEEN organ to terminal body weight ratio mean (Crl:CoBs CD(SD) rats; male, group 3, 100 mg/kg/day): .166% | TP - TESTIS/EPIDID organ to terminal body weight ratio mean (Crl:CoBs CD(SD) rats; male, group 3, 100 mg/kg/day): 1.219% | dilated pelves of kidneys, number of animals (Crl:CoBs CD(SD) rats; male, group 3, 100 mg/kg/day): one | BR - BRAIN W/STEM organ to terminal body weight ratio mean (Crl:CoBs CD(SD) rats; male, group 4, 300 mg/kg/day): .581% | HT - HEART organ to terminal body weight ratio mean (Crl:CoBs CD(SD) rats; male, group 4, 300 mg/kg/day): .328% | KD - KIDNEY organ to terminal body weight ratio mean (Crl:CoBs CD(SD) rats; male, group 4, 300 mg/kg/day): .695% | LI - LIVER organ to terminal body weight ratio mean (Crl:CoBs CD(SD) rats; male, group 4, 300 mg/kg/day): 3.101* % | SP - SPLEEN organ to terminal body weight ratio mean (Crl:CoBs CD(SD) rats; male, group 4, 300 mg/kg/day): .163% | TP - TESTIS/EPIDID organ to terminal body weight ratio mean (Crl:CoBs CD(SD) rats; male, group 4, 300 mg/kg/day): 1.212% | dilated pelves of kidneys, number of animals (Crl:CoBs CD(SD) rats; male, group 4, 300 mg/kg/day): one | BR - BRAIN W/STEM organ to terminal body weight ratio mean (Crl:CoBs CD(SD) rats; male, group 5, 1000 mg/kg/day): .571% | HT - HEART organ to terminal body weight ratio mean (Crl:CoBs CD(SD) rats; male, group 5, 1000 mg/kg/day): .343% | KD - KIDNEY organ to terminal body weight ratio mean (Crl:CoBs CD(SD) rats; male, group 5, 1000 mg/kg/day): .770% | LI - LIVER organ to terminal body weight ratio mean (Crl:CoBs CD(SD) rats; male, group 5, 1000 mg/kg/day): 3.683* % | SP - SPLEEN organ to terminal body weight ratio mean (Crl:CoBs CD(SD) rats; male, group 5, 1000 mg/kg/day): .176% | TP - TESTIS/EPIDID organ to terminal body weight ratio mean (Crl:CoBs CD(SD) rats; male, group 5, 1000 mg/kg/day): 1.202% | mean liver weight (Crl:CoBs CD(SD) rats; males of Groups 4 (300 mg/kg/day × 30 days) and 5 (1000 mg/kg/day × 30 days), Group 5 females): increased | dilated pelves of kidneys, number of animals (Crl:CoBs CD(SD) rats; males, Group 5 (1000 mg/kg/day)): three | Safety Ratio daily dose; MES (Crl:CoBs CD(SD) rats; rat, oral, 100 mg/kg/day × 30 days vs oral MES ED50): 2.1 | safety ratio, dose to signs of liver enlargement following 30 days medication relative to oral anti-convulsant dose (Crl:CoBs CD(SD) rats; rats, threshold daily dose 100 mg/kg): 2.1 | IC50 [2]: 5 mM
